Data published in patent US7994172B2, “[1H-pyrazolo[3, 4-D]pyrimidin-4-yl]-piperidine or -piperazine compounds as serine-theoronine kinase modulators (P70s6k, Atk1 and Atk2) for the treatment of immunological, inflammatory and proliferative diseases” (Exelixis, Inc., priority 2004, dated 2011).

Assays:
[1] = target: T1, human Akt1 kinase (kinase domain residues R144-A480, activated with PDK1) (Homo sapiens, UniProt P31749); test: Akt1 kinase assay, Luciferase-Coupled Chemiluminescent Kinase assay (LCCA); format: biochemical; settings: 1 μM ATP, 1.3 nM Akt1; read-out: Akt-1 inhibition IC50
T1 construct: made in house
Description: (§1) Kinase activity and compound inhibition are investigated using one or more of the three assay formats described below. The ATP concentrations for each assay are selected to be close to the Michaelis-Menten constant (KM) for each individual kinase. Dose-response experiments are performed at 10 different inhibitor concentrations in a 384-well plate format. The data are fitted to four-parameter equation (2) below; where Y is the observed signal, X is the inhibitor concentration, Min is the background signal in the absence of enzyme (0% enzyme activity), Max is the signal in the absence of inhibitor (100% enzyme activity), IC50 is the inhibitor concentration at 50% enzyme inhibition and H represents the empirical Hill's slope to measure the cooperativity. Typically H is close to unity. Y=Min+(Max−Min)/(1+(X/IC50)^H) Equation (2) p70S6 Kinase Assay
Biochemical activity of Akt1 kinase was assessed using a Luciferase-Coupled Chemiluminescent Kinase assay (LCCA) format. Kinase activity was measured as the percent ATP remaining following the kinase reaction. Remaining ATP was detected by luciferase-luciferin-coupled chemiluminescence. Specifically, the reaction was initiated by mixing test compounds, 1 μM ATP, 5 μM crosstide peptide and 1.3 nM Akt1 (baculovirus expressed human Akt1 kinase domain residues R144-A480, activated with PDK1) in a 20 uL assay buffer (20 mM Tris-HCL pH 7.5, 10 mM MgCl2, 0.01% Triton X-100, 1 mM DTT, 3 mM MnCl2). The mixture is incubated at ambient temperature for 3 hours after which 20 μL luciferase-luciferin mix is added and the chemiluminescent signal read using a Wallac Victor2 reader. The luciferase-luciferin mix consists of 50 mM HEPES, pH 7.8, 8.5 μg/mL oxalic acid (pH 7.8), 5 (or 50) mM DTT, 0.4% Triton X-100, 0.25 mg/mL coenzyme A, 63 uM AMP, 28 μg/mL luciferin and 40,000 units/mL luciferase.

[2] = target: T2, human p70S6 kinase (p70S6K, kinase domain residues 1-421, T412E mutation) (Homo sapiens, UniProt P23443, T412E); test: p70S6 kinase assay, Luciferase-Coupled Chemiluminescent Kinase assay (LCCA); format: biochemical; settings: 5 μM ATP, 12 nM p70S6K; read-out: p70S6K inhibition IC50
T2 construct: human p70S6 kinase domainresidues 1-421, containing a T412E mutation; made in house
Description: as §1
Biochemical activity of p70S6 kinase was assessed using a Luciferase-Coupled Chemiluminescent Kinase assay (LCCA) format. Kinase activity was measured as the percent ATP remaining following the kinase reaction. Remaining ATP was detected by luciferase-luciferin-coupled chemiluminescence. Specifically, the reaction was initiated by mixing test compounds, 5 μM ATP, 5 μM RRRLSSLRA peptide and 12 nM p70S6K (baculovirus expressed human p70S6 kinase domainresidues 1-421, containing a T412E mutation) in a 20 uL assay buffer (20 mM Tris-HCL pH 7.5, 10 mM MgCl2, 0.02% Triton X-100, 100 mM DTT, 2 mM MnCl2). The mixture is incubated at ambient temperature for 2 hours after which 20 μL luciferase-luciferin mix is added and the chemiluminescent signal read using a Wallac Victor^2 reader. The luciferase-luciferin mix consists of 50 mM HEPES, pH 7.8, 8.5 μg/mL oxalic acid (pH 7.8), 5 (or 50) mM DTT, 0.4% Triton X-100, 0.25 mg/mL coenzyme A, 63 uM AMP, 28 μg/mL luciferin and 40,000 units/mL luciferase.

T1 sequence (P31749 144-480): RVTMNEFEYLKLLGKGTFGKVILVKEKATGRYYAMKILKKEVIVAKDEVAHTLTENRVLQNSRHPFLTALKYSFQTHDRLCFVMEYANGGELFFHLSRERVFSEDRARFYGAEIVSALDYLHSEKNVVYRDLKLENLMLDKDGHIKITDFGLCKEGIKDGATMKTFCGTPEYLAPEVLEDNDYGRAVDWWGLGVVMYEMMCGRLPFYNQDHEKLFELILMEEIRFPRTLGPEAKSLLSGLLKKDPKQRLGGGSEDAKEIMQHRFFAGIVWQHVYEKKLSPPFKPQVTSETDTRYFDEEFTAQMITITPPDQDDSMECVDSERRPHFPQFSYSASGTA
T2 sequence (P23443 1-421 T412E): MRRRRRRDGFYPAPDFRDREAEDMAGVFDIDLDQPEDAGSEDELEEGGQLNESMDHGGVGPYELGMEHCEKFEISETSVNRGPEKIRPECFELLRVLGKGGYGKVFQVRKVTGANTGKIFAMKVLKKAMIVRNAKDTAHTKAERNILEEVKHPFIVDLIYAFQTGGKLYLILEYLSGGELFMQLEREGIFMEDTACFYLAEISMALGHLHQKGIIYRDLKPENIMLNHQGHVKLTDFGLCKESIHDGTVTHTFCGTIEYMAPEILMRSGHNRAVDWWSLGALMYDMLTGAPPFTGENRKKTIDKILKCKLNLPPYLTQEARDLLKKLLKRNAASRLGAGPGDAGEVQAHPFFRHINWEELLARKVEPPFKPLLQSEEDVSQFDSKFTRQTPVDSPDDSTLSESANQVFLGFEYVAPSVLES

Row | Structure (SMILES) | IC50 [1] [nM] | IC50 [2] [nM]
1 | Clc1ccc(CC2CCN(c3ncnc4[nH]nc(Br)c34)CC2)cc1Cl [Entry 40, 3-bromo-4-{4-[(3,4-dichlorophenyl)methyl]piperidin-1-yl}-1H-pyrazolo[3,4-d]pyrimidine] | > 2000 | < 50
2 | COC(=O)c1ccc(CN2CCN(c3ncnc4[nH]nc(Br)c34)CC2)cc1 [Entry 42, methyl 4-{[4-(3-bromo-1H-pyrazolo[3,4-d]pyrimidin-4-yl)piperazin-1-yl]methyl}benzoate] | > 2000 | < 50
3 | CCN(CC)CCCNC(=O)C1(Cc2ccc(Cl)cc2)CCN(c2ncnc3[nH]nc(Br)c23)CC1 [Entry 44, 1-(3-bromo-1H-pyrazolo[3,4-d]pyrimidin-4-yl)-4-[(4-chlorophenyl)methyl]-N-[3-(diethylamino)propyl]piperidine-4-carboxamide] | 50 to 500 | < 50
4 | CCN(CC)CCCNC(=O)C1(c2ccc(Cl)cc2)CCN(c2ncnc3[nH]nc(Br)c23)CC1 [Entry 49, 1-(3-bromo-1H-pyrazolo[3,4-d]pyrimidin-4-yl)-4-(4-chlorophenyl)-N-[3-(diethylamino)propyl]piperidine-4-carboxamide] | 500 to 2000 | < 50
5 | Clc1ccc(NC2CCN(c3ncnc4[nH]nc(Br)c34)CC2)cc1 [Entry 59, 1-(3-bromo-1H-pyrazolo[3,4-d]pyrimidin-4-yl)-N-(4-chlorophenyl)piperidin-4-amine] | > 2000 | 50 to 500
6 | O=[N+]([O-])c1cc(CN2CCN(c3ncnc4[nH]nc(Br)c34)CC2)ccc1Oc1ccc(F)cc1 [Entry 65, 3-bromo-4-[4-({4-[(4-fluorophenyl)oxy]-3-nitrophenyl}methyl)piperazin-1-yl]-1H-pyrazolo[3,4-d]pyrimidine] | > 2000 | 500 to 2000
7 | Clc1cc(CN2CCN(c3ncnc4[nH]nc(Br)c34)CC2)ccc1OCc1ccccc1 [Entry 80, 3-bromo-4-[4-({3-chloro-4-[(phenylmethyl)oxy]phenyl}methyl)piperazin-1-yl]-1H-pyrazolo[3,4-d]pyrimidine] | > 2000 | > 2000
8 | O=C(NCCCN1CCOCC1)c1ccc(CN2CCN(c3ncnc4[nH]nc(Br)c34)CC2)cc1 [Entry 81, 4-{[4-(3-bromo-1H-pyrazolo[3,4-d]pyrimidin-4-yl)piperazin-1-yl]methyl}-N-(3-morpholin-4-ylpropyl)benzamide] | > 2000 | > 2000
9 | COCCCNC(=O)c1ccc(CN2CCN(c3ncnc4[nH]nc(Br)c34)CC2)cc1 [Entry 82, 4-{[4-(3-bromo-1H-pyrazolo[3,4-d]pyrimidin-4-yl)piperazin-1-yl]methyl}-N-[3-(methyloxy)propyl]benzamide] | > 2000 | > 2000
10 | CN(C)CCOCC1CN(c2ncnc3[nH]nc(Br)c23)CCN1Cc1ccc(Cl)cc1 (centres unmarked) [Entry 83, 2-[({4-(3-bromo-1H-pyrazolo[3,4-d]pyrimidin-4-yl)-1-[(4-chlorophenyl)methyl]piperazin-2-yl}methyl)oxy]-N,N-dimethylethanamine] | > 2000 | > 2000
11 | O=[N+]([O-])c1cc(CN2CCN(c3ncnc4[nH]nc(Br)c34)CC2)ccc1Oc1ccc(Cl)cc1 [Entry 84, 3-bromo-4-[4-({4-[(4-chlorophenyl)oxy]-3-nitrophenyl}methyl)piperazin-1-yl]-1H-pyrazolo[3,4-d]pyrimidine] | > 2000 | > 2000
12 | CN(C)CCO[C@@H](c1ccc(Cl)cc1)C1CCN(c2ncnc3[nH]nc(Br)c23)CC1 [Entry 86, 2-{[(R)-[1-(3-bromo-1H-pyrazolo[3,4-d]pyrimidin-4-yl)piperidin-4-yl](4-chlorophenyl)methyl]oxy}-N,N-dimethylethanamine] | < 50 | < 50
13 | CN(C)CCNC(=O)N(c1ccc(Br)c(F)c1)C1CCN(c2ncnc3[nH]nc(Br)c23)CC1 [Entry 87, N-(4-bromo-3-fluorophenyl)-N-[1-(3-bromo-1H-pyrazolo[3,4-d]pyrimidin-4-yl)piperidin-4-yl]-N′-[2-(dimethylamino)ethyl]urea] | < 50 | < 50
